Assay results as given in PMC9186362, “Design and biological evaluation of substituted 5,7-dihydro-6H-indolo[2,3-c]quinolin-6-one as novel selective Haspin inhibitors” (Journal of Enzyme Inhibition and Medicinal Chemistry, 2022).

What was measured:
Experiment in all cases: SelectScreen Adapta
Format in all cases: biochemical
CAMK1 (CaMK1) = target: T1, CAMK1 (CaMK1) (Homo sapiens, UniProt Q14012); conditions: ATP 10 µM, read-out: Percentage of inhibition
T1 construct: purchased Life Technologies (SelectScreen Whole Panel service)
Protocol: (§1) We further evaluated the selectivity profile of compound 55 on a larger panel of kinases (SelectScreen Whole Panel, Life Technologies). The inhibition profile of 55, evaluated at 1 μM, is depicted on a dendrogram on Figure 3 where kinases inhibited by a minimum of 80% are shown. A full list of the kinases tested is shown on Table S1 in supplementary information.

CDK4/cyclin D1 = target: T2, CDK4/cyclin D1 (Homo sapiens, UniProt P11802); conditions: ATP 10 µM, read-out: Percentage of inhibition
T2 construct: purchased Life Technologies (SelectScreen Whole Panel service)
Protocol: as §1

CDK4/cyclin D3 = target: T3, CDK4/cyclin D3 (Homo sapiens, UniProt P11802); conditions: ATP 10 µM, read-out: Percentage of inhibition
T3 construct: purchased Life Technologies
Protocol: as §1

CDK6/cyclin D1 = CDK6/cyclin D1 (Homo sapiens, UniProt Q00534); conditions: ATP 10 µM, read-out: Percentage of inhibition
Protocol: as §1

CDK7/cyclin H/MNAT1 = target: T4, CDK7/cyclin H/MNAT1 (Homo sapiens, UniProt P50613); conditions: ATP Km, read-out: Percentage of inhibition
T4 construct: purchased Life Technologies
Protocol: as §1

CDK9/cyclin T1 = CDK9/cyclin T1 (Homo sapiens, UniProt P50750); conditions: ATP Km, read-out: Percentage of inhibition
Protocol: as §1

CHUK (IKK alpha) = target: T5, CHUK (IKK alpha) (Homo sapiens, UniProt O15111); conditions: ATP Km, read-out: Percentage of inhibition
T5 construct: purchased Life Technologies
Protocol: as §1

GSG2 (Haspin) = target: T6, GSG2 (Haspin) (Homo sapiens, UniProt Q8TF76); conditions: ATP Km, read-out: Percentage of inhibition
T6 construct: purchased Life Technologies (SelectScreen Whole Panel)
Protocol: as §1

IRAK1 = target: T7, IRAK1 (Homo sapiens, UniProt P51617); conditions: ATP Km, read-out: Percentage of inhibition
T7 construct: purchased Life Technologies (SelectScreen service)
Protocol: as §1

LRRK2 = target: T8, LRRK2 (Homo sapiens, UniProt Q5S007); conditions: ATP Km, read-out: Percentage of inhibition
T8 construct: purchased Life Technologies (SelectScreen service)
Protocol: as §1

LRRK2 FL = target: T9, LRRK2 FL (Homo sapiens, UniProt Q5S007); conditions: ATP Km, read-out: Percentage of inhibition
T9 construct: purchased Life Technologies
Protocol: as §1

LRRK2 G2019S = target: T10, LRRK2 G2019S (Homo sapiens, UniProt Q5S007, G2019S); conditions: ATP Km, read-out: Percentage of inhibition
T10 construct: purchased Life Technologies
Protocol: as §1

LRRK2 G2019S FL = target: T11, LRRK2 G2019S FL (Homo sapiens, UniProt Q5S007, G2019S); conditions: ATP Km, read-out: Percentage of inhibition
T11 construct: LRRK2 G2019S FL; purchased Life Technologies (SelectScreen Whole Panel)
Protocol: as §1

LRRK2 I2020T = target: T12, LRRK2 I2020T (Homo sapiens, UniProt Q5S007, I2020T); conditions: ATP Km, read-out: Percentage of inhibition
T12 construct: purchased Life Technologies (SelectScreen Whole Panel)
Protocol: as §1

LRRK2 R1441C = target: T13, LRRK2 R1441C (Homo sapiens, UniProt Q5S007, R1441C); conditions: ATP Km, read-out: Percentage of inhibition
T13 construct: purchased Life Technologies
Protocol: as §1

NUAK1 (ARK5) = NUAK1 (ARK5) (Homo sapiens, UniProt O60285); conditions: ATP Km, read-out: Percentage of inhibition
Protocol: as §1

PI4K2A (PI4K2 alpha) = target: T14, PI4K2A (PI4K2 alpha) (Homo sapiens, UniProt Q9BTU6); conditions: ATP Km, read-out: Percentage of inhibition
T14 construct: purchased Life Technologies (SelectScreen Whole Panel)
Protocol: as §1

PI4K2B (PI4K2 beta) = target: T15, PI4K2B (PI4K2 beta) (Homo sapiens, UniProt Q8TCG2); conditions: ATP Km, read-out: Percentage of inhibition
T15 construct: purchased Life Technologies (SelectScreen Whole Panel)
Protocol: as §1

PI4KA (PI4K alpha) = target: T16, PI4KA (PI4K alpha) (Homo sapiens, UniProt P42356); conditions: ATP 10 µM, read-out: Percentage of inhibition
T16 construct: purchased Life Technologies (SelectScreen Whole Panel)
Protocol: as §1

PI4KB (PI4K beta) = target: T17, PI4KB (PI4K beta) (Homo sapiens, UniProt Q9UBF8); conditions: ATP Km, read-out: Percentage of inhibition
T17 construct: purchased Life Technologies
Protocol: as §1

PIK3C2A (PI3K-C2 alpha) = PIK3C2A (PI3K-C2 alpha) (Homo sapiens, UniProt O00443); conditions: ATP Km, read-out: Percentage of inhibition
Protocol: as §1

PIK3C2B = PIK3C2B (Homo sapiens, UniProt O00750); conditions: ATP 10 µM, read-out: Percentage of inhibition
Protocol: as §1

PIK3C2G (PI3K-C2 gamma) = target: T18, PIK3C2G (PI3K-C2 gamma) (Homo sapiens, UniProt O75747); conditions: ATP Km, read-out: Percentage of inhibition
T18 construct: purchased Life Technologies (SelectScreen Whole Panel service)
Protocol: as §1

PIK3C3 (hVPS34) = target: T19, PIK3C3 (hVPS34) (Homo sapiens, UniProt Q8NEB9); conditions: ATP Km, read-out: Percentage of inhibition
T19 construct: purchased Life Technologies (SelectScreen)
Protocol: as §1

[1] = target: PIK3CA E542K/PIK3R1 (p110 alpha E542K/p85 alpha (Homo sapiens, UniProt P42336, E542K)); conditions: ATP 10 µM, read-out: Percentage of inhibition
Protocol: as §1

[2] = target: T20, PIK3CA E545K/PIK3R1 (p110 alpha E545K/p85 alpha) (Homo sapiens, UniProt P42336, E545K); conditions: ATP Km, read-out: Percentage of inhibition
T20 construct: purchased Life Technologies (SelectScreen Whole Panel)
Protocol: as §1

[3] = target: PIK3CA/PIK3R1 (p110 alpha/p85 alpha) (Homo sapiens, UniProt P42336); conditions: ATP Km, read-out: Percentage of inhibition
Protocol: as §1

[4] = target: T21, PIK3CA/PIK3R3 (p110 alpha/p55 gamma) (Homo sapiens, UniProt P42336); conditions: ATP Km, read-out: Percentage of inhibition
T21 construct: purchased Life Technologies (SelectScreen Whole Panel)
Protocol: as §1

[5] = target: T22, PIK3CB/PIK3R1 (p110 beta/p85 alpha) (Homo sapiens, UniProt P42338); conditions: ATP Km, read-out: Percentage of inhibition
T22 construct: purchased Life Technologies (SelectScreen)
Protocol: as §1

[6] = target: T23, PIK3CD/PIK3R1 (p110 delta/p85 alpha) (Homo sapiens, UniProt O00329); conditions: ATP Km, read-out: Percentage of inhibition
T23 construct: purchased Life Technologies (SelectScreen Whole Panel service)
Protocol: as §1

PIK3CG (p110 gamma) = PIK3CG (p110 gamma) (Homo sapiens, UniProt P48736); conditions: ATP Km, read-out: Percentage of inhibition
Protocol: as §1

PIP4K2A = PIP4K2A (Homo sapiens, UniProt P48426); conditions: ATP 10 µM, read-out: Percentage of inhibition
Protocol: as §1

PIP5K1A = target: T24, PIP5K1A (Homo sapiens, UniProt Q99755); conditions: ATP 10 µM, read-out: Percentage of inhibition
T24 construct: purchased Life Technologies (SelectScreen service)
Protocol: as §1

PIP5K1B = target: T25, PIP5K1B (Homo sapiens, UniProt O14986); conditions: ATP 10 µM, read-out: Percentage of inhibition
T25 construct: purchased Life Technologies
Protocol: as §1

SPHK1 = target: T26, SPHK1 (Homo sapiens, UniProt Q9NYA1); conditions: ATP Km, read-out: Percentage of inhibition
T26 construct: purchased Life Technologies (SelectScreen Whole Panel)
Protocol: as §1

SPHK2 = target: T27, SPHK2 (Homo sapiens, UniProt Q9NRA0); conditions: ATP 10 µM, read-out: Percentage of inhibition
T27 construct: purchased Life Technologies (SelectScreen Whole Panel)
Protocol: as §1

T13 sequence (Q5S007 970-2527 R1441C limits assumed): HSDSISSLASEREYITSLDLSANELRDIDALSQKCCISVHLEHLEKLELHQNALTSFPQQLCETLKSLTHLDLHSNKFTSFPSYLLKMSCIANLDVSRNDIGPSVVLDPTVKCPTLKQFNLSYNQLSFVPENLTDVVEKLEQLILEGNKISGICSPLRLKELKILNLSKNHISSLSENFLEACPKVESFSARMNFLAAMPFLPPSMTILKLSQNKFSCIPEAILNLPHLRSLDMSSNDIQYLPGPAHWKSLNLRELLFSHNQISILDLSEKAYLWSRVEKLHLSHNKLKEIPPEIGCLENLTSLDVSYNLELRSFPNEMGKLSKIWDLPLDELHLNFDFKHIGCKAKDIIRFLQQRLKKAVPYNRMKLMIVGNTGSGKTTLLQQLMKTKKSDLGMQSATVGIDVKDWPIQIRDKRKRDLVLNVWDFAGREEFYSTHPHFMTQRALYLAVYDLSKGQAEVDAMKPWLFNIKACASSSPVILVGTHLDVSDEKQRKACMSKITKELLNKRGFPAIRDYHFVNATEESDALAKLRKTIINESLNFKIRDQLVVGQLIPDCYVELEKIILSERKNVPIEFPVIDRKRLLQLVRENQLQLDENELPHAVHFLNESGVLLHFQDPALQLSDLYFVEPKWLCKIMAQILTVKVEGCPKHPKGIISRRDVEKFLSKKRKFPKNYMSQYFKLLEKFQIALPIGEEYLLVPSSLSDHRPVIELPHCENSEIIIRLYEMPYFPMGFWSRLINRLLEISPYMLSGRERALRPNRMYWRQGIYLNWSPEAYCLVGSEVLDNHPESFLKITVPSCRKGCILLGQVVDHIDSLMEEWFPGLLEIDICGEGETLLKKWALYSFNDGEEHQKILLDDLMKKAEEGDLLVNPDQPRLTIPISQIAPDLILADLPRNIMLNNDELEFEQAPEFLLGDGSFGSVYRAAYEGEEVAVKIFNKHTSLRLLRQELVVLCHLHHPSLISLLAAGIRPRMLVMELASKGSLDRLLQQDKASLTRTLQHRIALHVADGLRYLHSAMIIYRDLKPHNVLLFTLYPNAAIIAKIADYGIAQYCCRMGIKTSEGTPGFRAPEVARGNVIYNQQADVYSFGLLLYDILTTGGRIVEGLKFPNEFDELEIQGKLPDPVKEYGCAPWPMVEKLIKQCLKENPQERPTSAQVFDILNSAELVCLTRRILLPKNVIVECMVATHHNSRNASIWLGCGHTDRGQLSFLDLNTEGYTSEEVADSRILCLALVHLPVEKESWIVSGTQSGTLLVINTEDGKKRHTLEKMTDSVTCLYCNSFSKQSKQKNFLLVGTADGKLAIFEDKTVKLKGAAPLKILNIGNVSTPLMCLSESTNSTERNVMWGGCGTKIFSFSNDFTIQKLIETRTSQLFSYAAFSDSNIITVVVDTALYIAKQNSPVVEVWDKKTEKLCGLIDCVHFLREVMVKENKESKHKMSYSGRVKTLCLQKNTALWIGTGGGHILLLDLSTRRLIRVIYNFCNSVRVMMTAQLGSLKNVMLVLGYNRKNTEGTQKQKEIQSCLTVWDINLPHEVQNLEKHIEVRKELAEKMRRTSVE
T26 sequence (Q9NYA1 whole entry): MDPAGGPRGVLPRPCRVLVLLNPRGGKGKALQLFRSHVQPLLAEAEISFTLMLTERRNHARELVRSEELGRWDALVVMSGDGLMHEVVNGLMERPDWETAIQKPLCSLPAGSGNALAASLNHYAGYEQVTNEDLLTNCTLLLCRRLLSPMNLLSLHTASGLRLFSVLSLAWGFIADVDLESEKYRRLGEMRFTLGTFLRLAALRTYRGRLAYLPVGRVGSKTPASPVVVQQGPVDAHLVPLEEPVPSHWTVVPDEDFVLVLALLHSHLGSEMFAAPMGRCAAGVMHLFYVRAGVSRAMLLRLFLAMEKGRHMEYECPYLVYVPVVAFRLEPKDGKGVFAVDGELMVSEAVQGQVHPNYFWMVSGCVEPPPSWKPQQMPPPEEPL
Chain of CDK6/cyclin D1 (Q00534 whole entry): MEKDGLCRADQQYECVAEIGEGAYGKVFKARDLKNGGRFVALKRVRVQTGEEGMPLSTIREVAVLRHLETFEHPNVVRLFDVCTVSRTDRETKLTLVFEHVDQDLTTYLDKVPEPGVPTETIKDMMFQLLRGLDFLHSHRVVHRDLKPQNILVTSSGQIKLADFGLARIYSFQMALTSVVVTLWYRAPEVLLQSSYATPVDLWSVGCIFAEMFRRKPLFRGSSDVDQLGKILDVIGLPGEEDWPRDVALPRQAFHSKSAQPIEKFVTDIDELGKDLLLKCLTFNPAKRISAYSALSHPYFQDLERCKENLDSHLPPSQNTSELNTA
Chain of CDK6/cyclin D1 (P24385 whole entry partner): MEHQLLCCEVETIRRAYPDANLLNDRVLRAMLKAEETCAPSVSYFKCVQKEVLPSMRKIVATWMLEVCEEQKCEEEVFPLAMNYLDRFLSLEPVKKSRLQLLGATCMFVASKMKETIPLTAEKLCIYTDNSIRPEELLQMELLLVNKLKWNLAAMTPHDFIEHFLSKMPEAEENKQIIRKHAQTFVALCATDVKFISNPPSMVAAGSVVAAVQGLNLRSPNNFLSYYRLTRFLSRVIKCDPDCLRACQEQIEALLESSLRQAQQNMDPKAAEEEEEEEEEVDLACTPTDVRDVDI
T20 sequence (P42336 whole entry E545K): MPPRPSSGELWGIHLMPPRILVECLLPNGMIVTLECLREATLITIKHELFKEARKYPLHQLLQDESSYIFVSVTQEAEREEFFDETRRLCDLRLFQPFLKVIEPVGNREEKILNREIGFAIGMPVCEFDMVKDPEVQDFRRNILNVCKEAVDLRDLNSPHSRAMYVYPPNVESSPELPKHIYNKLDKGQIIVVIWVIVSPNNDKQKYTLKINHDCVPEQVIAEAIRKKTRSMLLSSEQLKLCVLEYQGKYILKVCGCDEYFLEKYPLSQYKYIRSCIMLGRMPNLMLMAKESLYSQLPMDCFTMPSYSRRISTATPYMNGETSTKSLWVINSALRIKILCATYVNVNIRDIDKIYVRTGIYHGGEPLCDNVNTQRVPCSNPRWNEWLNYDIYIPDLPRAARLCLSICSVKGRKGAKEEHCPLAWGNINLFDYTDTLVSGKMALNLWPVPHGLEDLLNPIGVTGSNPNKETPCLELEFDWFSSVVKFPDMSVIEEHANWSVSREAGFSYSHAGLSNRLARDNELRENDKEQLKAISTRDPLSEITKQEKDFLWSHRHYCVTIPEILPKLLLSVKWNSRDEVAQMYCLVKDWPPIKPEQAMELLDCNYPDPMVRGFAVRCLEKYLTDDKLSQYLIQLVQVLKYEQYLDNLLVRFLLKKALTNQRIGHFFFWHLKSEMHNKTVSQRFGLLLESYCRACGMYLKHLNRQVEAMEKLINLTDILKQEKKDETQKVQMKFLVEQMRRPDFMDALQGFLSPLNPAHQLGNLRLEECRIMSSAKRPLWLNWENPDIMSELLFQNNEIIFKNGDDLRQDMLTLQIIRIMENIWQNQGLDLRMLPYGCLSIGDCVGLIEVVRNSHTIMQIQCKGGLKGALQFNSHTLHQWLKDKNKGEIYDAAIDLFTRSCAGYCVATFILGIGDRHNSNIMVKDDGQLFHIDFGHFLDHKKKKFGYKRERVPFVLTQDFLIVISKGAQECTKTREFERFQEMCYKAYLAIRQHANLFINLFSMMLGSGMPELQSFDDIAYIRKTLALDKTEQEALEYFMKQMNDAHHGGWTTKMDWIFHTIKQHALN
T20 sequence (P27986 whole entry partner): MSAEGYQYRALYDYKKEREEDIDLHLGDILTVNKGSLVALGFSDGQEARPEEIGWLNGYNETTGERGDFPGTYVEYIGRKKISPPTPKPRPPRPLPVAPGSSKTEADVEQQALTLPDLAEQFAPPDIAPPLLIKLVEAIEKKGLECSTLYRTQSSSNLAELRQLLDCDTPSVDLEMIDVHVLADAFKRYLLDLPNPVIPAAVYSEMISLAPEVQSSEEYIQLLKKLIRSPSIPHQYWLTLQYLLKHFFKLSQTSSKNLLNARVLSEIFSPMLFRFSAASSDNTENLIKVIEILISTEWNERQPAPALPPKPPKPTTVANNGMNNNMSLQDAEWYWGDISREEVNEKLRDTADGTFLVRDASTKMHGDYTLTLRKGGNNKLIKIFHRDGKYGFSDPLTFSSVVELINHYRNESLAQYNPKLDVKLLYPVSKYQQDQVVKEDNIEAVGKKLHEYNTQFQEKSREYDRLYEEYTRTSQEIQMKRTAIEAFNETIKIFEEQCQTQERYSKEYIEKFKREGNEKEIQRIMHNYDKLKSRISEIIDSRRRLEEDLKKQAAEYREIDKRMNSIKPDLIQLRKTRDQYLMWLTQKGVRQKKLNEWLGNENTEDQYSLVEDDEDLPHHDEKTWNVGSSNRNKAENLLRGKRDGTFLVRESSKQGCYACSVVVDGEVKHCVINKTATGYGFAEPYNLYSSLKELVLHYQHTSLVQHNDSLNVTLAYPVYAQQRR
T12 sequence (Q5S007 970-2527 I2020T limits assumed): as the sequence (Q5S007 970-2527 R1441C limits assumed) above, with C472R, I1051T counted along it
T27 sequence (Q9NRA0 whole entry): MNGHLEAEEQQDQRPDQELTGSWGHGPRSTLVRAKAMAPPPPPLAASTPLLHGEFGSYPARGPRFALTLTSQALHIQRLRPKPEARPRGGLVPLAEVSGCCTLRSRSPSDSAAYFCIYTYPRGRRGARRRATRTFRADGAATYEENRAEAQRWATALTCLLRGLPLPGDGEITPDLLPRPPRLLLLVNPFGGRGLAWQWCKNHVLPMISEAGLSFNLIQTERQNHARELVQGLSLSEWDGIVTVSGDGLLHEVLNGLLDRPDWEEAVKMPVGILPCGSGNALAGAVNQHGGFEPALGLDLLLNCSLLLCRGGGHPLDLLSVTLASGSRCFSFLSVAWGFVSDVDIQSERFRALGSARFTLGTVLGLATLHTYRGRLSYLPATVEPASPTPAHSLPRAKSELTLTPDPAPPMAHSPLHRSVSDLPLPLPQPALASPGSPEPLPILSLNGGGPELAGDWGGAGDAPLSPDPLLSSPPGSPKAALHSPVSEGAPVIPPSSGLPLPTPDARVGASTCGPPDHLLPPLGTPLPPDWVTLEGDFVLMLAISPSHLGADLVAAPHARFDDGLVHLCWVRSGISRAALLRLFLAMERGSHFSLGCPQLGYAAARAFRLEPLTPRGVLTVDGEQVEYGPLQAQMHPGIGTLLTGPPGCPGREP

COc1ccc2[nH]c3c(=O)[nH]c4ccc(O)cc4c3c2c1 [Compound 55, 2-Hydroxy-10-methoxy-5,7-dihydro-6H-indolo[2,3-c]quinolin-6-one]
inhibition at 1 µM (CAMK1 (CaMK1)): 10% | inhibition at 1 µM (CDK4/cyclin D1): 12% | inhibition at 1 µM (CDK4/cyclin D3): 5% | inhibition at 1 µM (CDK6/cyclin D1): 14% | inhibition at 1 µM (CDK7/cyclin H/MNAT1): 27% | inhibition at 1 µM (CDK9/cyclin T1): 70% | inhibition at 1 µM (CHUK (IKK alpha)): 38% | inhibition at 1 µM (GSG2 (Haspin)): 100% | inhibition at 1 µM (IRAK1): 91% | inhibition at 1 µM (LRRK2): 90% | inhibition at 1 µM (LRRK2 FL): 95% | inhibition at 1 µM (LRRK2 G2019S): 95% | inhibition at 1 µM (LRRK2 G2019S FL): 98% | inhibition at 1 µM (LRRK2 I2020T): 100% | inhibition at 1 µM (LRRK2 R1441C): 93% | inhibition at 1 µM (NUAK1 (ARK5)): 65% | inhibition at 1 µM (PI4K2A (PI4K2 alpha)): 1% | inhibition at 1 µM (PI4K2B (PI4K2 beta)): 1% | inhibition at 1 µM (PI4KA (PI4K alpha)): 0% | inhibition at 1 µM (PI4KB (PI4K beta)): 41% | inhibition at 1 µM (PIK3C2A (PI3K-C2 alpha)): 14% | inhibition at 1 µM (PIK3C2B): 67% | inhibition at 1 µM (PIK3C2G (PI3K-C2 gamma)): 47% | inhibition at 1 µM (PIK3C3 (hVPS34)): 9% | inhibition at 1 µM [1]: 70% | inhibition at 1 µM [2]: 51% | inhibition at 1 µM [3]: 62% | inhibition at 1 µM [4]: 53% | inhibition at 1 µM [5]: 9% | inhibition at 1 µM [6]: 44% | inhibition at 1 µM (PIK3CG (p110 gamma)): 19% | inhibition at 1 µM (PIP4K2A): 13% | inhibition at 1 µM (PIP5K1A): 23% | inhibition at 1 µM (PIP5K1B): 33% | inhibition at 1 µM (SPHK1): -3% | inhibition at 1 µM (SPHK2): -1%
